Experimental findings from patent US20190359653A1, “SELECTIVE PEPTIDE INHIBITORS OF FRIZZLED” (Genentech, Inc., priority 2016, published 2019) are described below.

For assay [1], the system named is Wnt3a-mediated β-catenin signaling in HEK293-TB cells. It is filed as cell-based.
Assay [2] concerns Wnt5a binding to FZD1 CRD, FZD2 CRD, and FZD7 CRD. The experiment in a line: ELISA of biotinylated Wnt5a binding to FZD CRD-Fc. On the procedure: 384-well Maxisorp plates (cat. no. 464718; Thermo Scientific) were incubated with 30 μL of Neutravidin (cat. no. 31000, Thermo Scientific; 2 μg/mL in PBS) overnight at 4° C. Plates were then washed with PBST and blocked with PBS/1% BSA for 1 hour at RT and then washed with PBST prior to further processing. The binding assay was conducted in 96 well plates (cat no. 83007-374; VWR) which were blocked with PBS/1% BSA overnight at 4° C. hFZD4 CRD-Fc or hFZD7 CRD-Fc (63 ng/mL) were incubated with either Bio-Wnt3a (25 ng/mL) or Bio-Wnt5a (50 ng/mL) in the presence of 4-fold serial dilutions of the indicated peptide in PBS overnight at 4° C. All assays included hFZD9 CRD-mIgG2A protein as a negative control. hFZD7 CRD-His was suspended in 150 mM NaCl, 50 mM Tris-HCl at pH 7.5 and when used in assays an equal volume of the same buffer control was used. The binding assay mixtures were transferred to the Neutravidin coated plates and incubated for ˜1 h at RT. The wells were then washed with PBST, incubated with anti-hIgG1-HRP (1:10,000 suspended in PBS supplemented with 1% BSA; cat. no. A18817, Invitrogen), and washed again with PBST. The signal was developed with the addition of TMB reagent (following the manufacturer's recommendation; KPL; 50-76-00) for 15 min prior to the addition of an equal volume of 1 M phosphoric acid for 10 min Absorbance was measured at 450 nm using a Tekan M1000 plate reader. Values were collected and plotted using Prism Graphpad software. All assay conditions using peptides were at 1% DMSO final concentration. […]
Briefly, the assays were performed using (a) FZD1 CRD-Fc, (b) FZD2 CRD-Fc, (c) FZD4 CRD-Fc, or (d) FZD7 CRD-Fc as the capture reagent and biotinylated-Wnt5a as the detection reagent. […] Streptavidin-HRP was used to detect biotinylated Wnt5a, and HRP activity was measured as a function of chemiluminescence detection at 428 nm. […]
On the technique in general: ELISA stands for enzyme-linked immunosorbent assay.

Assay [3] deals with T1, Wnt3a binding to FZD4 CRD (Homo sapiens, UniProt Q9ULV1).
T1 construct: hFZD4 CRD-Fc (cat no. 5847-FZ); purchased R&D systems 5847-FZ
T1 sequence (Q9ULV1 40-161 limits assumed): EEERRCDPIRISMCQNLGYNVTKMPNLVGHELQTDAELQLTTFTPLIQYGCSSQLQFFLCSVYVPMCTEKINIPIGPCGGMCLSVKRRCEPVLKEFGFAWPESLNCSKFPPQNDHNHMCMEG
The experiment in a line: ELISA of biotinylated Wnt3a binding to FZD CRD-Fc. Conditions: peptide 0-10 μM. The procedure:
384-well Maxisorp plates (cat. no. 464718; Thermo Scientific) were incubated with 30 μL of Neutravidin (cat. no. 31000, Thermo Scientific; 2 μg/mL in PBS) overnight at 4° C. Plates were then washed with PBST and blocked with PBS/1% BSA for 1 hour at RT and then washed with PBST prior to further processing. The binding assay was conducted in 96 well plates (cat no. 83007-374; VWR) which were blocked with PBS/1% BSA overnight at 4° C. hFZD4 CRD-Fc or hFZD7 CRD-Fc (63 ng/mL) were incubated with either Bio-Wnt3a (25 ng/mL) or Bio-Wnt5a (50 ng/mL) in the presence of 4-fold serial dilutions of the indicated peptide in PBS overnight at 4° C. All assays included hFZD9 CRD-mIgG2A protein as a negative control. hFZD7 CRD-His was suspended in 150 mM NaCl, 50 mM Tris-HCl at pH 7.5 and when used in assays an equal volume of the same buffer control was used. The binding assay mixtures were transferred to the Neutravidin coated plates and incubated for ˜1 h at RT. The wells were then washed with PBST, incubated with anti-hIgG1-HRP (1:10,000 suspended in PBS supplemented with 1% BSA; cat. no. A18817, Invitrogen), and washed again with PBST. The signal was developed with the addition of TMB reagent (following the manufacturer's recommendation; KPL; 50-76-00) for 15 min prior to the addition of an equal volume of 1 M phosphoric acid for 10 min Absorbance was measured at 450 nm using a Tekan M1000 plate reader. Values were collected and plotted using Prism Graphpad software. All assay conditions using peptides were at 1% DMSO final concentration.
Without being bound be theory, the substantial conformational change induced by dFz7-21 on hFZD7 CRD, as exemplified by the altered geometry of the lipid binding cavity, may facilitate the accommodation of two Wnt molecules simultaneously onto the hFZD7 CRD dimer (FIG. 4e-h).
Similar results were observed using Wnt3a. […] Binding of Wnt3a to FZD1 CRD, FZD2 CRD, and FZD7 CRD increased in the presence of dFz7-21 at concentrations below about 0.5 μM (FIG. 22E), with the most binding seen in the presence of 0.01 μM-0.05 μM dFz7-21. […] Fz7-21S had no effect on Binding of Wnt3a to any of the FZD CRDs tested (FIG. 22F).

In assay [4] the test system is intestinal epithelia of C57BL/6 mice. The experiment in a line: RT-PCR of intestinal epithelia from treated mice. It is filed as in vivo, mouse. The following applies: intraperitoneal, 6 h; FIGS. 20A-20C. On the procedure:
RNA from organoid samples was isolated using the RNeasy Micro kit (cat. no. 74004; Qiagen) according to the manufacturer's instructions. Mouse small intestine RNA was collected using the RNeasy Mini Kit (cat. no. 74104; Qiagen). qRT-PCR was performed in 10 μL reactions with 50 ng total RNA using One-step Real-time RT-PCR mastermix (cat. no. 4392938; Life Technologies) according to the manufacturer's instructions. Taqman probes from Life Technologies were used: Actb (Mm01205647_g1); Lgr5 (Mm01251801_m1); Axin2 (Mm00443610_m1); Ascl2 (Mm01268891_g1); Olfm4 (Mm01320260_m1); Muc2 (Mm01276696_m1); ACTB(Hs99999903_m1); ACTB(Mm00607939_s1); GAPDH (Mm99999915_g1); and GAPDH(Hs03929097_g1). RT-PCR reactions were run using a 7900HT Fast Real-Time PCR system (ABI) at the following thermal cycling conditions: Holding step of 30 min at 48° C., followed by a holding step of 10 min at 95° C., and 40 cycles of 10 sec at 95° C. and 1 min at 60° C. Values were normalized to actin transcript levels and then normalized to control as described in the figure legend.
C57BL/6 female mice (8 weeks old) were subjected to intraperitoneal injection once per hour (˜150-200 μL injection volume for five injections) until the indicated peptide dose was reached. […]
The pharmacological effect of dFz7-21 was further investigated in vivo. […] Following treatment, RT-PCR was performed to quantify transcript levels.

Entries after “also recorded” stand apart in the source; their conditions may differ.

As to “LPSDDLEFWSHVMY [Fz7-21S, negative control]”, in assay [1], the “Reduction in fold potency vs. dimer” value is recorded as >9,000 fold and the “inhibition of Wnt3a signaling” value was “not found to inhibit”. Further, in assay [2] (peptide 0-10 μM), the “effect on Wnt5a binding to FZD1, FZD2 and FZD7 CRD” value is “showed no effect”. Further, the “effect on Wnt3a binding to FZD4 CRD” value in assay [3] is “showed no effect”. For the same sequence, the “Lgr5, Ascl2 and Axin2 transcript levels” value in assay [4] was “did not affect”.

As to LPSDDLEFWCHVMY [dFz7-21], the “improvement compared to monomeric Fz7-21 in inhibiting Wnt3a signaling” value in assay [1] (FIG. 15) is around 40 fold. Besides, the “peptide concentration with the most Wnt5a binding” value in assay [2] (FIGS. 22A, 22B) was determined as 0.05 µM. Moreover, in assay [3], the “effect on Wnt3a binding to FZD4 CRD” value is on record as “did not show any effect; also recorded: Neither Fz7-21 nor dFz7-21 had any effect”. In assay [4], the “Lgr5, Ascl2 and Axin2 transcript levels” value was “significantly down regulated”.
